pIC50: −log10 of the molar value.
Experiments:
rhBCAT2 = target: T1, rhBCAT2 (Homo sapiens, UniProt O15382); test: aminotransferase activity assay with leucine dehydrogenase; assay type: biochemical
T1 sequence (O15382 28-392): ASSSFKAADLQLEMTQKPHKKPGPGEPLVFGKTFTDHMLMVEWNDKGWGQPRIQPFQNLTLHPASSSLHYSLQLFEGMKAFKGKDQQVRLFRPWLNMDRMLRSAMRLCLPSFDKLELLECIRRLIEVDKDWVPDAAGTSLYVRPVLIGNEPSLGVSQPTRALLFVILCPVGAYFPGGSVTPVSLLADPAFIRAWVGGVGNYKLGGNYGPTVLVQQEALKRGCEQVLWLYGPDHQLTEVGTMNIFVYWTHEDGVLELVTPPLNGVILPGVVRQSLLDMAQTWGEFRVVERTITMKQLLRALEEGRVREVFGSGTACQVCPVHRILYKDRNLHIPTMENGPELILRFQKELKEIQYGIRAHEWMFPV

rhBCAT1 = target: T2, rhBCAT1 (Homo sapiens, UniProt P54687); test: as above; assay type: biochemical
T2 sequence (P54687 1-386): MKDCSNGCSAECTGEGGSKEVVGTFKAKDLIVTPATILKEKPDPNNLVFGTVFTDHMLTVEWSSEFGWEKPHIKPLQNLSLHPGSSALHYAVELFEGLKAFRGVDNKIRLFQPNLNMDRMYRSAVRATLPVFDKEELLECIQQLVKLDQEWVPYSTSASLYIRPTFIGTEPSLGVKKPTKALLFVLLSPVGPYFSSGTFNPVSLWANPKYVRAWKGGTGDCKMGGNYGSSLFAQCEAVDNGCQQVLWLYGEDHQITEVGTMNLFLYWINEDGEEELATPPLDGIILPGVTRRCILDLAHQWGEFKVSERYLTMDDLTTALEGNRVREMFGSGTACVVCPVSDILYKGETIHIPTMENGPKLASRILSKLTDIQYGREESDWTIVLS

pIC50 (rhBCAT2): < 6.00
pIC50 (rhBCAT1): ~9.30
SMILES: O=C(O)CCC(C(=O)c1ccc(Br)cc1)c1ccccc1 (centres unmarked) [ERG245]
